Test results taken from ChEMBL document CHEMBL3301361, “Experimental in vitro DMPK and physicochemical data on a set of publicly disclosed compounds”.
≈ marks a conversion by molar mass, not a printed value.

Experiments:
in vitro [1] = conditions: SD, HW or BN, rat, plasma
in vitro [2] = conditions: human, plasma
in vitro [3] = conditions: Beagle, dog, plasma
physchem [4] = conditions: octan-1-ol/water, pH 7.4, LogD7.4
physchem [5] = conditions: pH 7.4 buffer
in vitro [6] = conditions: human, liver microsomes

Row | SMILES | fraction unbound at 5 h (in vitro [1]) | fraction unbound at 5 h (in vitro [2]; PPB) | fraction unbound at 5 h (in vitro [3]) | fraction unbound at 5 h (in vitro [2]) | logD (physchem [4]) | solubility thermodynamic (physchem [5]) [µM] | microsomal CLint (in vitro [6]) [µL/min/mg]
1 | C[S+]([O-])Cc1ccc(C(=O)Nc2ccc(OCCOCCO)nc2C(=O)NCC2CCC2)c2ccccc12 (stereo not drawn) | 0.0343 | 0.0499 | 0.0581 |  |  |  | 
2 | CN(C)CCCN1c2ccccc2CCc2ccccc21 [IMIPRAMINE] | 0.173 |  | 0.0437 | 0.121 |  |  | 
3 | CC(C)(C)NC(=O)NCCN1CCN(CC(=O)Nc2cc(Cl)cc(Cl)c2)CC1 |  | 0.0521 | 0.0556 |  |  |  | 
4 | Cc1oc(CN2CCNCC2)cc1C(=O)NCC12CC3CC(CC(C3)C1)C2 |  | 0.148 | 0.437 |  | 1.03 |  | 
5 | CNC(=C[N+](=O)[O-])NCCSCc1ccc(CN(C)C)o1 [RANITIDINE] |  |  | 0.711 |  | -0.95 |  | 
6 | C[C@H](CO)Nc1nc(SCc2cccc(F)c2F)nc2nc(N)sc12 |  | 0.0196 | 0.0366 |  | 3.29 | 8.1 (≈ 3.11 µg/mL) | 
7 | C[C@H]1CN(c2cc(N(CCO)Cc3cccc4ccccc34)[nH]c(=O)n2)CCO1 | 0.0948 | 0.16 | 0.299 |  |  |  | 
8 | CC(C)(C)NC(=O)NCCN1CCC(CNC(=O)c2cc(Cl)cc(Cl)c2)CC1 | 0.17 | 0.11 | 0.11 |  |  |  | 
9 | Cc1c(Cl)ccc(OC2CCN(C3CCN(C(=O)c4cccc(S(C)(=O)=O)c4)CC3)CC2)c1Cl |  | 0.035 | 0.035 |  | 3.33 |  | 13.5
10 | COc1cc2c(cc1OC)C(=O)C(CC1CCN(Cc3ccccc3)CC1)C2 (stereo not drawn) [DONEPEZIL] | 0.339 | 0.105 | 0.613 |  |  |  | 
11 | Cc1ccc(NC(=O)c2cccc(C(C)(C)C#N)c2)cc1Nc1ccc2ncn(C)c(=O)c2c1 | 0.5 | 0.0039 | 0.004 |  |  |  | 
12 | CC(C)(C)S(=O)(=O)CCCN1CCN(CC(=O)NC23CC4CC(CC(C4)C2)C3)CC1 | 0.309 | 0.349 | 0.289 |  |  |  | 
13 | CC(C)(C)OC(=O)NC[C@H]1CC[C@H](CNC(=O)c2cc(N3CCC(CCO)CC3)nc3ccccc23)CC1 | 0.0099 | 0.007 | 0.0084 |  |  |  | 
14 | OCCO[C@H]1C[C@@H](n2nnc3c(N[C@@H]4C[C@H]4c4ccc(F)c(F)c4)nc(SCCC(F)(F)F)nc32)[C@H](O)[C@@H]1O |  | 0.0015 | 0.0046 |  | 4.17 |  | 
15 | CC(C)(C)NC(=O)NCCN1CCOC(CNC(=O)c2cc(Cl)cc(Cl)c2)C1 (stereo not drawn) | 0.0676 | 0.0606 | 0.0818 |  |  |  | 
16 | CC(C)(C)NC(=O)NCCN1CCCC(NC(=O)c2cc(Cl)cc(Cl)c2)C1 (stereo not drawn) | 0.0391 | 0.028 | 0.0633 |  |  |  | 
17 | OC[C@H]1C[C@@H](n2nnc3c(N[C@@H]4C[C@H]4c4ccc(F)c(F)c4)nc(SCCC(F)(F)F)nc32)[C@H](O)[C@@H]1O |  | 0.0015 | 0.002 |  | 3.99 | 7.2 (≈ 3.93 µg/mL) | 
18 | COc1ncc(-c2cccc3c2C[C@H](NC(=O)c2ccc(COCC(F)(F)F)nc2)CO3)cn1 |  | 0.0366 | 0.0705 |  |  | 158 (≈ 75.2 µg/mL) | 
19 | O=C(CN1CCN(CCC2CCOCC2)CC1)NC12CC3CC(CC(C3)C1)C2 | 0.392 | 0.529 | 0.431 |  |  |  | 
20 | COC(=O)C1=C(C)NC(C)=C(C(=O)OC)C1c1ccccc1[N+](=O)[O-] [NIFEDIPINE] | 0.0023 |  | 0.0736 | 0.0383 |  |  | 
21 | COc1ccc2c(c1)c(CC(=O)O)c(C)n2-c1ccnc2cc(Cl)ccc12 |  | 0.0099 | 0.0183 |  | 1.68 |  | < 3
22 | CCCNC(=O)NS(=O)(=O)c1ccc(Cl)cc1 [CHLORPROPAMIDE] |  | 0.04 | 0.142 |  | -0.33 |  | 
23 | NC(=O)c1cnc(N[C@H]2CCCNC2)c2cc(-c3ccccc3)sc12 | 0.224 |  | 0.0366 |  |  |  | 
24 | CCCn1c(=O)[nH]c(=O)c2[nH]cnc21 [ENPROFYLLINE] | 0.212 | 0.329 | 0.392 |  |  |  | 
25 | Cc1c(CC(=O)O)c2cc(F)ccc2n1S(=O)(=O)c1ccc(S(C)(=O)=O)cc1 |  |  | 0.0521 |  | -0.44 |  | 
26 | CC(C)Cc1nn(C)c(=O)c2c(SCCCO)n(Cc3cccc4ccccc34)cc12 |  | 0.0027 | 0.0013 |  |  |  | 
27 | OC[C@H](Nc1ncc(Cl)c(Nc2cc(C3CC3)n[nH]2)n1)c1ccc(F)cc1 |  | 0.0437 | 0.0499 |  | 3.75 |  | 
28 | COc1ccc2c(C)cc(N[C@H]3CC[C@H](NCc4cn(C)c5ccc(C#N)cc45)C3)nc2c1 | 0.0146 | 0.0139 | 0.0209 |  |  |  | 
